Results on five compounds are retold here after US10308628B2, “Heterocyclic compounds and methods for their use” (NOVARTIS AG, priority 2015, dated 2019).

In the assay the target is human AT2 receptor (Homo sapiens (Human), UniProt P50052). Briefly: AT2 receptor binding assay ([125I]CGP 42112A displacement, CHO-K1 cell membranes). The note with it: membranes of CHO-K1 cells stably expressing human AT2 receptor; 0.05 nM [125I]CGP 42112A; Ki derived from IC50 by Cheng-Prussoff equation. Here is the method: Reagents were purchased from Sigma-Aldrich, unless otherwise specified. Dialyzed fetal bovine serum (FBS) was from Life Technologies (cat. no. 10073772). Valiscreen® human angiotensin AT2 receptor cell line (cat. no. ES-070-C), [^125I]CGP 42112A (cat. no. NEX324025UC) and MicroScint™ 40 (cat. no. 6013641) were purchased from PerkinElmer. CGP 42112A (cat. no. 2569) and PD 123,319 ditrifluoroacetate (cat. no. 1361) were from Tocris Biosciences.
Sequence of human AT2 receptor (P50052 whole entry): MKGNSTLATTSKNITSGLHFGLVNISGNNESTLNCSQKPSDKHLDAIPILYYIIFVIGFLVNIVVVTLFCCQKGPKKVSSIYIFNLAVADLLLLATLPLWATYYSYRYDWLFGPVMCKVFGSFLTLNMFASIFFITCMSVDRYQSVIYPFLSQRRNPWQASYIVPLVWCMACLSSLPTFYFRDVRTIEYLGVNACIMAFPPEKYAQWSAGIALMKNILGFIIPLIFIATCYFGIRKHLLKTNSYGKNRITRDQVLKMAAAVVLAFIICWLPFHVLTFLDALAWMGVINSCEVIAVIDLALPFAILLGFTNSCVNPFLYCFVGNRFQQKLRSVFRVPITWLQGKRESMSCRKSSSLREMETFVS
6. […] Compound Preparation
Compounds were prepared from 10 mM stock solutions in 100% DMSO. Dilutions were made using electronic multichannel pipettes.
Controls • Total binding (high control) was determined in the absence of unlabelled ligand. A solution of 10% DMSO in assay buffer was prepared. • Non-specific binding (low control) was determined in the presence of a vast excess (10 μM) of PD 123,319. 1 mM stock solution of PD 123,319 in water was diluted […] with 10% DMSO in assay buffer.
15 μL compound solution was transferred to duplicate wells of assay plate. 5 compounds were tested per plate. 15 μL control solutions were transferred to columns 1 and 12 of assay plate.
For orientation: Ki means a measure of affinity in units of concentration, obtained from inhibition or displacement. As for `O=C(O)[C@@H]1C[C@H](N2CCCOc3cc(F)ccc32)CCN1C(=O)C(c1ccccc1)c1ccccc1` [Compound 2, (2S,4R)-1-(2,2-Diphenylacetyl)-4-(8-fluoro-3,4 dihydrobenzo[b][1,4]oxazepin-5(2H)-yl)piperidine-2-carboxylic acid], the affinity corresponds to a Ki of 9 nM.

Consider `COc1ccc2c(c1)CCCCN2[C@@H]1CCN(C(=O)C(c2ccccc2)c2ccccc2)[C@H](C(=O)O)C1` [Compound 5, (2S,4R)-1-(2,2-Diphenylacetyl)-4-(7-methoxy-2,3,4,5-tetrahydro-1H-benzo[b]azepin-1-yl)piperidine-2-carboxylic acid], for which the affinity, expressed as Ki, was 9 nM. That is a single-digit nanomolar value. For `O=C(O)[C@@H]1C[C@H](N2CCCOc3ccccc32)CCN1C(=O)C(c1ccccc1)c1ccccc1` [Compound 4, (2S,4R)-4-(3,4-Dihydrobenzo[b][1,4]oxazepin-5(2H)-yl)-1-(2,2-diphenylacetyl)piperidine-2-carboxylic acid], the affinity, expressed as Ki, was 15 nM. This Ki lies about 1.7-fold higher than the previous one. As for `O=C(O)[C@@H]1C[C@H](N2CCCOc3cc(F)c(F)cc32)CCN1C(=O)C(c1ccccc1)c1ccccc1` [Compound 1, (2S,4R)-4-(7,8-Difluoro-3,4-dihydrobenzo[b][1,4]oxazepin-5 (2H)-yl)-1-(2,2-diphenylacetyl)piperidine-2-carboxylic acid], the affinity corresponds to a Ki of 7 nM. Regarding `O=C(O)[C@@H]1C[C@H](N2CCCOc3ccc(F)cc32)CCN1C(=O)C(c1ccccc1)c1ccccc1` [Compound 3, (2S,4R)-1-(2,2-Diphenylacetyl)-4-(7-fluoro-3,4dihydrobenzo[b][1,4]oxazepin-5(2H)-yl)piperidine-2-carboxylic acid], the Ki stood at 17 nM.
